In data set [1] the target is T1, CGRP1 receptor (human neuroblastoma cell (SK-N-MC) membrane) (Homo sapiens, UniProt O60894+Q16602).
T1 construct: human neuroblastoma cell (SK-N-MC) membrane suspension; purchased PerkinElmer; host or cells: SK-N-MC human neuroblastoma cell membranes (endogenous receptor)
Briefly: CGRP1 binding assay (125I-hαCGRP displacement). Conditions: Table 3B. How it is done: CGRP1 binding experiments. […] The plates were incubated at room temperature for 2 hour with shaking at 60 rpm, then the contents of each well were filtered over 0.5% polyethyleneimine (PEI)-treated (at least one hour) GF/C 96-well filter plates. The GF/C filter plates were washed 6 times with ice-cold 50 mM Tris, pH 7.5 and dried in an oven at 55 C for 1 hour. The bottoms of the GF/C plates were then sealed, and 40 μl Microscint™ 20 was added to each well, then the tops of the GF/C plates were sealed with TopSeal™-A, a press-on adhesive sealing film, and the GF/C plates were counted with TopCount NXT (Packard). The data were analyzed by using ActivityBase (IDBS) or Prizm (GraphPad) software.

A short description of data set [2]: in vitro stability in 10% rat plasma, LC-MS/MS. The format is in vitro ADME. Conditions: room temperature. How it is done:
(§1) Consequently, the stability of select, non-PEGylated analogs was evaluated in vitro in the presence of 10% rat or human plasma. Briefly, samples of each peptide were diluted to 100 ng/ml into PBS containing 10% of rat or human plasma. Each sample was then incubated at room temperature and analyzed by LC-MS/MS to quantitate the intact peptide remaining at select time points over 6 hours.

Data set [3] can be described thus: in vitro stability in 10% human plasma, LC-MS/MS. Conditions: room temperature; for half-life at 100 ng/ml: read-out: time at which 50% depleted / detectable. The format is in vitro ADME. How it is done:
as §1

In another data set the target is T2, CGRP1 receptor (Homo sapiens, UniProt O60894+Q16602).
T2 construct: SK-N-MC cells express CRLR and RAMP1, which form CGRP1 receptor; endogenous in cells; host or cells: SK-N-MC human neuroblastoma cells
Briefly: in vitro CGRP1 receptor mediated cAMP assay in SK-N-MC cells. Format: cell-based. Conditions: non-PEGylated double substitution at R11 and R18. The procedure, abridged: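 Human SK-N-MC neuroblastoma cells, which endogenously express CRLR/RAMP1, were plated two days before assay and preincubated in plasma-free medium for 15 minutes at room temperature. Cells were then lysed for 30 minutes at 37° C, and cAMP in the lysates was quantified by competitive cAMP-AP chemiluminescent ELISA.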
Background: cAMP levels reflect the balance of adenylyl cyclase and phosphodiesterase activity.

The record followed here is patent publication US8168592B2 (Amgen Inc., priority 2005, dated 2012).

T1 sequence (Q16602 23-461): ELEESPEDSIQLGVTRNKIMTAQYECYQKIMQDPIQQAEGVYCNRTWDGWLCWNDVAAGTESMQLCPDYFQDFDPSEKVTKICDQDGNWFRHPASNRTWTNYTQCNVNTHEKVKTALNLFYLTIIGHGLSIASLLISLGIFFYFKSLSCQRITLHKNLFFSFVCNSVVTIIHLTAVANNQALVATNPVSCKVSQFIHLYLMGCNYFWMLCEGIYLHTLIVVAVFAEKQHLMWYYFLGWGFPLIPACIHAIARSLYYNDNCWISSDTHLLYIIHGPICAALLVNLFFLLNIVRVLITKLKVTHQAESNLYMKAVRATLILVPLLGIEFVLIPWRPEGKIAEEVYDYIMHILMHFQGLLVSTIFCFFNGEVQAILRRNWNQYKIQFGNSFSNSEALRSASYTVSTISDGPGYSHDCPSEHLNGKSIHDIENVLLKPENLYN
T1 sequence (O60894 27-148): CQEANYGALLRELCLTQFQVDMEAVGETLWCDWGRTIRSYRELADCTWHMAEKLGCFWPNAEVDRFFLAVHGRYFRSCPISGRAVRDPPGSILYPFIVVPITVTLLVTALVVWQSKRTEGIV
T2 sequence (Q16602 23-461): as the sequence (Q16602 23-461) above
T2 sequence (O60894 27-148): as the sequence (O60894 27-148) above

On to `CC(C)[C@H](NC(=O)[C@@H](CC(=O)O)NC(=O)[C@@H](NC(=O)[C@@H]1CCCN1C(=O)[C@@H](NC(=O)[C@@H](N)Cc1ccccc1)C(C)C)[C@@H](C)O)C(=O)NCC(=O)N1CCC[C@H]1C(=O)N[C@@H](Cc1ccccc1)C(=O)N[C@@H](C)C(=O)N[C@@H](Cc1ccccc1)C(N)=O` [compound 719], for which the Ki in data set [1] is over 1000 nM.

In the case of “Ac-WVTHRLAGLLSRSGGVVKNNFVPTDVGPFAF-NH2 [compound 684]”, the Ki in data set [1] worked out at 0.08 nM.

`CC(C)[C@H](NC(=O)[C@H](CC(=O)O)NC(=O)[C@@H](NC(=O)[C@@H]1CCCN1C(=O)[C@@H](NC(=O)[C@@H](N)Cc1ccccc1)C(C)C)[C@@H](C)O)C(=O)NCC(=O)N1CCC[C@H]1C(=O)N[C@@H](Cc1ccccc1)C(=O)N[C@@H](C)C(=O)N[C@H](Cc1ccccc1)C(N)=O` [compound 720] yielded a Ki in data set [1] of over 1000 nM.

With `CC(=O)N[C@@H](Cc1c[nH]c2ccccc12)C(=O)N[C@H](C(=O)N[C@H](C(=O)N[C@@H](Cc1cnc[nH]1)C(=O)N[C@@H](CCCN=C(N)N)C(=O)N[C@@H](CC(C)C)C(=O)N[C@@H](C)C(=O)NCC(=O)N[C@@H](CC(C)C)C(=O)N[C@@H](CC(C)C)C(=O)N[C@@H](CO)C(=O)N[C@@H](CCCN=C(N)N)C(=O)N[C@@H](CO)C(=O)NCC(=O)NCC(=O)N[C@H](C(=O)N[C@H](C(=O)N[C@@H](CCCN=C(N)N)C(=O)N[C@@H](CCCCN)C(=O)N[C@@H](CC(N)=O)C(=O)N[C@@H](Cc1ccccc1)C(=O)N[C@H](C(=O)N1CCC[C@H]1C(=O)N[C@H](C(=O)N[C@@H](CC(=O)O)C(=O)N[C@H](C(=O)NCC(=O)N1CCC[C@H]1C(=O)N[C@@H](Cc1ccccc1)C(=O)N[C@@H](C)C(=O)N[C@@H](Cc1ccccc1)C(N)=O)C(C)C)[C@@H](C)O)C(C)C)C(C)C)C(C)C)[C@@H](C)O)C(C)C` [SEQ ID NO:7], the “time at which about 10% of the starting concentration remains” value was about 2.5 h in data set [2] and “about 1 hours” in data set [3]. The values for the half-life at 100 ng/ml in data set [2] (read-out: time at which 50% depleted) and in data set [3] were about 45 min and under 30 min, respectively.

`CC(=O)N[C@@H](Cc1c[nH]c2ccccc12)C(=O)N[C@H](C(=O)N[C@H](C(=O)N[C@@H](Cc1cnc[nH]1)C(=O)N[C@@H](CCCCNC(=N)N)C(=O)N[C@@H](CC(C)C)C(=O)N[C@@H](C)C(=O)NCC(=O)N[C@@H](CC(C)C)C(=O)N[C@@H](CC(C)C)C(=O)N[C@@H](CO)C(=O)N[C@@H](CCCCNC(=N)N)C(=O)N[C@@H](CO)C(=O)NCC(=O)NCC(=O)N[C@H](C(=O)N[C@H](C(=O)N[C@@H](CCCNC(=N)N)C(=O)N[C@@H](CCCCN)C(=O)N[C@@H](CC(N)=O)C(=O)N[C@@H](Cc1ccccc1)C(=O)N[C@H](C(=O)N1CCC[C@H]1C(=O)N[C@H](C(=O)N[C@@H](CC(=O)O)C(=O)N[C@H](C(=O)NCC(=O)N1CCC[C@H]1C(=O)N[C@@H](Cc1ccccc1)C(=O)N[C@@H](C)C(=O)N[C@@H](Cc1ccccc1)C(N)=O)C(C)C)[C@@H](C)O)C(C)C)C(C)C)C(C)C)[C@@H](C)O)C(C)C` [SEQ ID NO:25]: the “reduced antagonist activity relative to the single-substitution analogs” value at CGRP1 receptor was “about 5 fold”. Also, the “time at which about 10% of the starting concentration remains” value in data set [2] is recorded as “about 5 hours”; in data set [3], “about 2 hours”. Moreover, the half-life at 100 ng/ml in data set [2] (read-out: time at which 50% remains (converted)) was about 90 min; in data set [3] it was about 30 min.

One may read the Ki as a dissociation constant, usually derived from enzyme kinetics or from competition with a known ligand. Read a high Ki as lower affinity.
